Reference: patent US20230017045A1, “PYRIDINE AND PYRIMIDINE CARBOXYLATE HERBICIDES AND METHODS OF USE THEREOF” (Dow AgroSciences LLC, priority 2017, published 2023)
Read-outs that look alike come from different tables or passages of the source.

Tested on: test plant species
Test: Post-emergent herbicidal activity test (greenhouse, foliar spray, visual growth reduction)
Assay type: in vivo
Conditions: post-emergence, 336 h, 140 g ai/ha
Protocol: Post-emergent Test: Seeds or nutlets of the desired test plant species were planted in Sun Gro Metro-Mix® 360 planting mixture, which typically has a pH of 6.0 to 6.8 and an organic matter content of about 30 percent, in plastic pots with a surface area of 64 square centimeters. In some aspects, to ensure good germination and healthy plants, a fungicide treatment and/or other chemical or physical treatment was applied. The plants were grown for 7-21 d in a greenhouse with an approximate 15 h photoperiod which was maintained at 23-29° C. during the day and 22-28° C. during the night. Nutrients and water were added on a regular basis and supplemental lighting was provided with overhead metal halide 1000-Watt lamps as necessary. Plants were used for testing when they reached the first or second true leaf stage. A weighed amount, determined by the highest rate to be tested, of each test compound was placed in a 25 mL glass vial and was dissolved in 4 mL of a 97:3 v/v mixture of acetone and DMSO to obtain concentrated stock solutions. […] The concentrated stock solutions obtained were diluted with 20 mL of an aqueous mixture containing acetone, water, isopropyl alcohol, DMSO, […] crop oil concentrate, and X-77 surfactant in a 48.5:39:10:1.5:1.0:0.02 v/v ratio to obtain spray solutions containing the application rate. Compound requirements are based upon a 12 mL application volume at a rate of 187 liters per hectare (L/ha). Formulated compounds were applied to the plant material with an overhead Mandel track sprayer equipped with […] nozzles calibrated to deliver 187 L/ha over an application area of 0.64 square meters at a spray height of 18 inches (43 cm) above the average plant canopy height. Control plants were sprayed in the same manner with the solvent blank. The treated plants and control plants were placed in a greenhouse as described above and watered by subirrigation to prevent wash-off of the test compounds. After 14 d, the condition of the test plants as compared with that of the nontreated and control plants was determined visually and scored on a scale of 0 to 100 percent where 0 corresponds to no injury and 100 corresponds to complete control. In the reporting of the results, Table A: Percent Growth Reduction Conversion Table was used.

[1] = ECHCG: barnyardgrass (Echinochloa crus-galli), 14 days after application, read-out: Visual Growth Reduction (%) 14 Days After Application, ECHCG
[2] = IPOHE: ivy-leaf morning glory (Ipomoea hederacea), 14 days after application, read-out: Visual Growth Reduction (%) 14 Days After Application, IPOHE
[3] = KCHSC: kochia (Bassia scoparia), 14 days after application, read-out: Visual Growth Reduction (%) 14 Days After Application, KCHSC
[4] = ORYSA: rice (Oryza sativa), 14 days after application, read-out: Visual Growth Reduction (%) 14 Days After Application, ORYSA
[5] = SETFA: giant foxtail (Setaria faberi), 14 days after application, read-out: Visual Growth Reduction (%) 14 Days After Application, SETFA
[6] = SORVU: grain sorghum (Sorghum vulgare), 14 days after application, read-out: Visual Growth Reduction (%) 14 Days After Application, SORVU
[7] = STEME: common chickweed (Stellaria media), 14 days after application, read-out: Visual Growth Reduction (%) 14 Days After Application, STEME
[8] = TRZAS: wheat, spring (Triticum aestivum), 14 days after application, read-out: Visual Growth Reduction (%) 14 Days After Application, TRZAS
[9] = blackgrass (Alopecurus myosuroides), 14 Days After Application, read-out: Visual Growth Reduction (%) ALOMY
[10] = crabgrass (Digitaria sanguinalis), 14 Days After Application, read-out: Visual Growth Reduction (%) DIGSA
[11] = lambsquarters (Chenopodium album), 14 Days After Application, read-out: Visual Growth Reduction (%) CHEAL
[12] = redroot pigweed (Amaranthus retroflexus), 14 Days After Application, read-out: Visual Growth Reduction (%) AMARE
[13] = wild oat (Avena fatua), 14 Days After Application, read-out: Visual Growth Reduction (%) AVEFA
[14] = yellow nutsedge (Cyperus esculentus), 14 Days After Application, read-out: Visual Growth Reduction (%) CYPES
[15] = canada thistle (Cirsium arvense), 14 Days After Application, read-out: Visual Growth Reduction (%) CIRAR
[16] = ALOMY: blackgrass (Alopecurus myosuroides), 14 days after application, read-out: Visual Growth Reduction (%) 14 Days After Application, ALOMY
[17] = AMARE: redroot pigweed (Amaranthus retroflexus), 14 days after application, read-out: Visual Growth Reduction (%) 14 Days After Application, AMARE
[18] = AVEFA: wild oat (Avena fatua), 14 days after application, read-out: Visual Growth Reduction (%) 14 Days After Application, AVEFA
[19] = CHEAL: lambsquarters (Chenopodium album), 14 days after application, read-out: Visual Growth Reduction (%) 14 Days After Application, CHEAL
[20] = CIRAR: canada thistle (Cirsium arvense), 14 days after application, read-out: Visual Growth Reduction (%) 14 Days After Application, CIRAR
[21] = CYPES: yellow nutsedge (Cyperus esculentus), 14 days after application, read-out: Visual Growth Reduction (%) 14 Days After Application, CYPES
[22] = DIGSA: crabgrass (Digitaria sanguinalis), 14 days after application, read-out: Visual Growth Reduction (%) 14 Days After Application, DIGSA

COC(=O)c1nc(-c2ccc(C(F)(F)F)c(Br)c2Cl)c(F)cc1Cl [F341, Methyl 6-(3-bromo-2-chloro-4-(trifluoromethyl)phenyl)-3-chloro-5-fluoropicolinate]
pest or weed control at 140 g/ha [1]: 0 to 29%
pest or weed control at 140 g/ha [2]: 95 to 100%
pest or weed control at 140 g/ha [3]: 60 to 74%
pest or weed control at 140 g/ha [4]: 0 to 29%
pest or weed control at 140 g/ha [5]: 85 to 94%
pest or weed control at 140 g/ha [6]: 95 to 100%
pest or weed control at 140 g/ha [7]: 30 to 44%
pest or weed control at 140 g/ha [8]: 45 to 59%
pest or weed control at 140 g/ha [9]: 30 to 44%
pest or weed control at 140 g/ha [10]: 85 to 94%
pest or weed control at 140 g/ha [11]: 85 to 94%
pest or weed control at 140 g/ha [12]: 95 to 100%
pest or weed control at 140 g/ha [13]: 45 to 59%
pest or weed control at 140 g/ha [14]: 0 to 29%

COC(=O)c1nc(-c2ccc(C(F)(F)F)cc2Br)c(F)cc1F [F374, Methyl 6-(2-bromo-4-(trifluoromethyl)phenyl)-3,5-difluoropicolinate]
pest or weed control at 140 g/ha [1]: 75 to 84%
pest or weed control at 140 g/ha [2]: 95 to 100%
pest or weed control at 140 g/ha [3]: 75 to 84%
pest or weed control at 140 g/ha [4]: 45 to 59%
pest or weed control at 140 g/ha [5]: 85 to 94%
pest or weed control at 140 g/ha [6]: 95 to 100%
pest or weed control at 140 g/ha [7]: 0 to 29%
pest or weed control at 140 g/ha [8]: 60 to 74%
pest or weed control at 140 g/ha [9]: 45 to 59%
pest or weed control at 140 g/ha [15]: 95 to 100%
pest or weed control at 140 g/ha [10]: 85 to 94%
pest or weed control at 140 g/ha [11]: 95 to 100%
pest or weed control at 140 g/ha [12]: 95 to 100%
pest or weed control at 140 g/ha [13]: 45 to 59%
pest or weed control at 140 g/ha [14]: 0 to 29%

COC(=O)c1nc(-c2cc(F)c(C(F)(F)F)cc2F)c(Cl)cc1Cl [F325, Methyl 3,5-dichloro-6-(2,5-difluoro-4-(trifluoromethyl)phenyl)picolinate]
pest or weed control at 140 g/ha [1]: 0 to 29%
pest or weed control at 140 g/ha [2]: 95 to 100%
pest or weed control at 140 g/ha [3]: 0 to 29%
pest or weed control at 140 g/ha [4]: 0 to 29%
pest or weed control at 140 g/ha [5]: 30 to 44%
pest or weed control at 140 g/ha [6]: 85 to 94%
pest or weed control at 140 g/ha [7]: 0 to 29%
pest or weed control at 140 g/ha [8]: 0 to 29%
pest or weed control at 140 g/ha [9]: 0 to 29%
pest or weed control at 140 g/ha [15]: 85 to 94%
pest or weed control at 140 g/ha [10]: 75 to 84%
pest or weed control at 140 g/ha [11]: 95 to 100%
pest or weed control at 140 g/ha [12]: 60 to 74%
pest or weed control at 140 g/ha [13]: 0 to 29%
pest or weed control at 140 g/ha [14]: 0 to 29%

COC(=O)c1nc(-c2ccc(OC(F)(F)F)cc2F)c(F)cc1Cl [F187, Methyl 3-chloro-5-fluoro-6-(2-fluoro-4-(trifluoromethoxy)phenyl)picolinate]
pest or weed control at 140 g/ha [16]: 0 to 29%
pest or weed control at 140 g/ha [17]: 85 to 94%
pest or weed control at 140 g/ha [18]: 30 to 44%
pest or weed control at 140 g/ha [19]: 75 to 84%
pest or weed control at 140 g/ha [20]: 75 to 84%
pest or weed control at 140 g/ha [21]: 30 to 44%
pest or weed control at 140 g/ha [22]: 85 to 94%
pest or weed control at 140 g/ha [1]: 45 to 59%
pest or weed control at 140 g/ha [2]: 95 to 100%
pest or weed control at 140 g/ha [3]: 45 to 59%
pest or weed control at 140 g/ha [4]: 0 to 29%
pest or weed control at 140 g/ha [5]: 75 to 84%
pest or weed control at 140 g/ha [6]: 95 to 100%
pest or weed control at 140 g/ha [7]: 0 to 29%
pest or weed control at 140 g/ha [8]: 30 to 44%

COC(=O)c1nc(-c2ccc(OS(C)(=O)=O)cc2)c(F)cc1Cl [F159, Methyl 3-chloro-5-fluoro-6-(4-((methylsulfonyl)oxy)phenyl)picolinate]
pest or weed control at 140 g/ha [16]: 0 to 29%
pest or weed control at 140 g/ha [17]: 60 to 74%
pest or weed control at 140 g/ha [18]: 0 to 29%
pest or weed control at 140 g/ha [19]: 45 to 59%
pest or weed control at 140 g/ha [20]: 30 to 44%
pest or weed control at 140 g/ha [21]: 0 to 29%
pest or weed control at 140 g/ha [22]: 60 to 74%
pest or weed control at 140 g/ha [1]: 30 to 44%
pest or weed control at 140 g/ha [2]: 45 to 59%
pest or weed control at 140 g/ha [3]: 0 to 29%
pest or weed control at 140 g/ha [4]: 0 to 29%
pest or weed control at 140 g/ha [5]: 60 to 74%
pest or weed control at 140 g/ha [6]: 30 to 44%
pest or weed control at 140 g/ha [7]: 0 to 29%
pest or weed control at 140 g/ha [8]: 0 to 29%

COC(=O)c1nc(-c2ccc(OC(F)F)cc2Cl)ccc1Cl [F157, methyl 3-chloro-6-(2-chloro-4-(difluoromethoxy)phenyl)picolinate]
pest or weed control at 140 g/ha [16]: 0 to 29%
pest or weed control at 140 g/ha [17]: 95 to 100%
pest or weed control at 140 g/ha [18]: 45 to 59%
pest or weed control at 140 g/ha [19]: 85 to 94%
pest or weed control at 140 g/ha [20]: 85 to 94%
pest or weed control at 140 g/ha [21]: 0 to 29%
pest or weed control at 140 g/ha [22]: 85 to 94%
pest or weed control at 140 g/ha [1]: 85 to 94%
pest or weed control at 140 g/ha [2]: 95 to 100%
pest or weed control at 140 g/ha [3]: 85 to 94%
pest or weed control at 140 g/ha [4]: 0 to 29%
pest or weed control at 140 g/ha [5]: 85 to 94%
pest or weed control at 140 g/ha [6]: 95 to 100%
pest or weed control at 140 g/ha [7]: 0 to 29%
pest or weed control at 140 g/ha [8]: 60 to 74%

COC(=O)c1nc(-c2ccc(C(F)(F)F)c(C)c2Cl)ccc1Cl [F136, methyl 3-chloro-6-(2-chloro-3-methyl-4-(trifluoromethyl)phenyl)picolinate]
pest or weed control at 140 g/ha [16]: 0 to 29%
pest or weed control at 140 g/ha [17]: 95 to 100%
pest or weed control at 140 g/ha [18]: 0 to 29%
pest or weed control at 140 g/ha [19]: 75 to 84%
pest or weed control at 140 g/ha [20]: 0 to 29%
pest or weed control at 140 g/ha [21]: 0 to 29%
pest or weed control at 140 g/ha [22]: 60 to 74%
pest or weed control at 140 g/ha [1]: 0 to 29%
pest or weed control at 140 g/ha [2]: 95 to 100%
pest or weed control at 140 g/ha [3]: 45 to 59%
pest or weed control at 140 g/ha [4]: 0 to 29%
pest or weed control at 140 g/ha [5]: 0 to 29%
pest or weed control at 140 g/ha [6]: 75 to 84%
pest or weed control at 140 g/ha [7]: 0 to 29%
pest or weed control at 140 g/ha [8]: 0 to 29%

C=Cc1cc(C(F)(F)F)cc(Cl)c1-c1ccc(Cl)c(C(=O)O)n1 [F222, 3-Chloro-6-(2-chloro-4-(trifluoromethyl)-6-vinylphenyl) picolinic acid]
pest or weed control at 140 g/ha [1]: 60 to 74%
pest or weed control at 140 g/ha [2]: 95 to 100%
pest or weed control at 140 g/ha [3]: 45 to 59%
pest or weed control at 140 g/ha [4]: 0 to 29%
pest or weed control at 140 g/ha [5]: 30 to 44%
pest or weed control at 140 g/ha [6]: 75 to 84%
pest or weed control at 140 g/ha [7]: 0 to 29%
pest or weed control at 140 g/ha [8]: 45 to 59%
pest or weed control at 140 g/ha [9]: 0 to 29%
pest or weed control at 140 g/ha [15]: 85 to 94%
pest or weed control at 140 g/ha [10]: 75 to 84%
pest or weed control at 140 g/ha [11]: 75 to 84%
pest or weed control at 140 g/ha [12]: 75 to 84%
pest or weed control at 140 g/ha [13]: 0 to 29%
pest or weed control at 140 g/ha [14]: 0 to 29%
